Assay [1] addresses T1, USP7asoc (active site only cysteine) (Homo sapiens, UniProt Q93009, C300S/C315S/C334S/C478S/C488S/C510S).
T1 construct: (208‐560, C300/315/334/448/478/510S); made in house
As to the kind of experiment: Differential scanning fluorimetry (DSF), melting temperature shift of USP7asoc mutant. Format: binding. Particulars: 8 µM protein, 250 µM compound (1:31.25). Here is the method: USP7asoc only retains the catalytic Cys223 while all the other six cysteines are mutated to serine. DSF was selected for initial assessment since it is an efficient and rapid primary screening method readily available to our lab. […] An important consideration when assessing covalent inhibitors is the time dependence of covalent target occupancy and thus potency, which is determined by the reaction kinetics of the covalent binding event. To allow for drawing conclusions on compounds with slower reaction kinetics, incubation times of 30 min, 4 h, and 24 h at 20°C were chosen for the DSF screen with USP7 (Table 1 and Figures 2 and 3). The threshold at which compounds were considered (de‐)stabilizers was defined at 0.5°C. In parallel, the intrinsic reactivity of a set of representative compounds was evaluated in a glutathione reactivity assay. […] The expression and purification of USP7 catalytic domain (USP7CD) (208‐560) and USP7asoc (active site only cysteine) by using a pET24a(+)_HLT_USP7 construct were performed as previously described. […] For the USP7asoc, six of the seven cysteines are mutated to serines (208‐560, C300/315/334/448/478/510S). All utilized protein sequences are depicted in Supporting Information S2: Table S.3.1. The melting temperatures of USP7 and USP7asoc in the presence or absence of fragments were determined by DSF on a Qiagen Rotor‐Q Model‐5‐Plex HRM real‐time PCR instrument (Qiagen, Hilden, Germany). SYPRO Orange (Life Technologies Corporation, Eugene, OR, USA) was used as a fluorescent dye at a final concentration of 5x. The protein concentration was 8 µM, and the final compound concentration was 250 µM, corresponding to a protein‐to‐compound ratio of 1:31.25. All compounds were dissolved in dimethyl sulfoxide (DMSO) and the proteins in Tris buffer (25 mM Tris pH 8.0, 150 mM NaCl, 5 mM TCEP, 5% (v/v) DMSO). All measurements were performed after 30 min, 4 h, and 24 h of incubation and at least in triplicate. DSF experiments were carried out with a constant heating rate of 270°C/h. The temperature was ramped from 28°C to 60°C–70°C with excitation and emission filters set at 470 nm and 610 nm, respectively. The melting temperatures (T m) of USP7 and USP7asoc were determined from the maxima of the first derivatives of the melting curves in OriginPro2020 (OriginLab, Northampton, MA, USA). The ∆T m was calculated by subtraction of the T m of the protein sample with pure DMSO from the T m of the protein sample mixed with compound. Error propagation was used to average multiple runs for a compound. A compound was considered to be a hit if the shift in the ∆T m was at least 0.50°C [55].
(Differential scanning fluorimetry follows unfolding on heating by fluorescence.)

The target of assay [2] is T2, USP7 (Homo sapiens, UniProt Q93009).
T2 construct: USP7 catalytic domain (USP7CD) (208‐560); made in house
T2 sequence (Q93009 with tags, fused parts or gaps): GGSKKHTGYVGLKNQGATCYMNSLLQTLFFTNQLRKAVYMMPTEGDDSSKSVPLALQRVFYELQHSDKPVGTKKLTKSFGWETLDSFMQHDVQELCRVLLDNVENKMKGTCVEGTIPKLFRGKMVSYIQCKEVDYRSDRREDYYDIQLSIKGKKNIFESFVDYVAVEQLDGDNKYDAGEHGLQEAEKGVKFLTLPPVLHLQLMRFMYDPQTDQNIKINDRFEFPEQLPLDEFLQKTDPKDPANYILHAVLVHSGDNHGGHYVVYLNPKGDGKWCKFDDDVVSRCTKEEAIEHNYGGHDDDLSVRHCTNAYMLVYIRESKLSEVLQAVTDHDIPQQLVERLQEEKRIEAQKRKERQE
Also noted: method as in PMID 40165995. Particulars: hit from earlier screen of covalent kinase inhibitor library; cited from earlier work.

Assay [3] concerns the target T2, USP7. Description: Differential scanning fluorimetry (DSF), melting temperature shift of USP7. Particulars: 8 µM protein, 250 µM compound (1:31.25). Format: binding. An excerpt: The influence of the synthesized compounds on the melting temperature (T m) of USP7 and its mutant USP7asoc (active site only cysteine) was investigated by DSF. USP7asoc only retains the catalytic Cys223 while all the other six cysteines are mutated to serine. DSF was selected for initial assessment since it is an efficient and rapid primary screening method readily available to our lab.
An important consideration when assessing covalent inhibitors is the time dependence of covalent target occupancy and thus potency, which is determined by the reaction kinetics of the covalent binding event. To allow for drawing conclusions on compounds with slower reaction kinetics, incubation times of 30 min, 4 h, and 24 h at 20°C were chosen for the DSF screen with USP7 (Table 1 and Figures 2 and 3). The threshold at which compounds were considered (de‐)stabilizers was defined at 0.5°C. In parallel, the intrinsic reactivity of a set of representative compounds was evaluated in a glutathione reactivity assay. […] Data obtained from the GSH reactivity studies are shown in Supporting Information S2: Table S2.1 and Figures S2.1–2.3.
The melting temperatures of USP7 and USP7asoc in the presence or absence of fragments were determined by DSF on a Qiagen Rotor‐Q Model‐5‐Plex HRM real‐time PCR instrument (Qiagen, Hilden, Germany). SYPRO Orange (Life Technologies Corporation, Eugene, OR, USA) was used as a fluorescent dye at a final concentration of 5x. The protein concentration was 8 µM, and the final compound concentration was 250 µM, corresponding to a protein‐to‐compound ratio of 1:31.25. All compounds were dissolved in dimethyl sulfoxide (DMSO) and the proteins in Tris buffer (25 mM Tris pH 8.0, 150 mM NaCl, 5 mM TCEP, 5% (v/v) DMSO). All measurements were performed after 30 min, 4 h, and 24 h of incubation and at least in triplicate. DSF experiments were carried out with a constant heating rate of 270°C/h. The temperature was ramped from 28°C to 60°C–70°C with excitation and emission filters set at 470 nm and 610 nm, respectively. The melting temperatures (T m) of USP7 and USP7asoc were determined from the maxima of the first derivatives of the melting curves in OriginPro2020 (OriginLab, Northampton, MA, USA). The ∆T m was calculated by subtraction of the T m of the protein sample with pure DMSO from the T m of the protein sample mixed with compound. Error propagation was used to average multiple runs for a compound. A compound was considered to be a hit if the shift in the ∆T m was at least 0.50°C [55].

For assay [4], the target named is T3, USP7asoc (Homo sapiens, UniProt Q93009, C300S/C315S/C334S/C478S/C488S/C510S).
T3 construct: (208‐560, C300/315/334/448/478/510S); made in house
T3 sequence (Q93009 with tags, fused parts or gaps C300S/C315S/C334S/C478S/C488S/C510S): as the sequence (Q93009 with tags, fused parts or gaps) above, with C96S, C111S, C130S, C274S, C284S, C306S counted along it
On the set-up: method as in PMID 40165995. The conditions noted are these: 24 h incubation at 20°C, ratio 1:31.25; spectra reported previously; cited from earlier work.

The target in assay [5] is T2, USP7. Also noted: method as in PMID 40165995. The conditions noted are these: 24 h incubation at 20°C, ratio 1:31.25; spectra reported previously; cited from earlier work.
For assay [6], the target named is T4, USP7cd (USP7 catalytic domain) (Homo sapiens, UniProt Q93009).
T4 construct: USP7 catalytic domain (USP7CD) (208‐560); made in house
T4 sequence (Q93009 with tags, fused parts or gaps): as the sequence (Q93009 with tags, fused parts or gaps) above
As to the kind of experiment: Ub-AMC enzyme activity assay, IC50 determination. In kind it is biochemical. Particulars: 10 nM USP7cd, 500 nM Ub-AMC, 24 h pre-incubation at 20°C. Here is the method:
Therefore, USP7 was incubated for 24 h with ten different compound concentrations, and IC50 values were then obtained with a fluorescent DUB substrate (Ub‐AMC) (Figure 9A–F). The pre‐incubation times were chosen to account for the slow covalent binding kinetics observed in the previous experiments.
The cleavage activity of USP7cd in the presence or absence of inhibitors was measured using Ubiquitin‐Aminomethylcoumarin (Ub‐AMC) (Enzo Life Sciences GmbH, Lörrach, Germany) as a fluorogenic substrate. The fluorescence was monitored using the CLARIOstar plate reader (BMG Labtech GmbH, Ortenberg, Germany) at 25°C at 360 nm excitation and 460 nm emission wavelengths. […] Each measurement was performed at least twice in duplicate. […] Ub‐AMC was added to a final concentration of 500 nM, and the fluorescence was measured after 1 h. The normalized dose‐response semi‐logarithmic curves were fitted using OriginPro2021 and the four‐parameter logistic function.
Different concentrations of compounds were pre-incubated with USP7 for 24 h at 20 °C in a rotating shaker in 25 mM Tris pH 8.0, 150mM NaCl, 5 mM TCEP supplemented with 0.2 mg/mL bovine serum albumin (BSA). Fluorescence was measured after 1 h of the addition of Ub-AMC. The dose response semi-logarithmic curves were fitted using OriginPro2021 and the four-parameter logistic function.

Molecules are shown by their SMILES. Where “and” joins values, the source holds several entries; their conditions need not be identical. Equal values may be shown once. Read-outs that look alike come from different tables or passages of the source.

T1 sequence (Q93009 with tags, fused parts or gaps C300S/C315S/C334S/C478S/C488S/C510S): as the sequence (Q93009 with tags, fused parts or gaps) above, with C96S, C111S, C130S, C274S, C284S, C306S counted along it

The IC50 is the midpoint of a concentration-inhibition curve. `Cn1cc(-c2cccc3cnc(Nc4nc(F)ccc4[N+](=O)[O-])cc23)cn1` [7a, N‐(6‐Fluoro‐3‐nitropyridin‐2‐yl)‐5‐(1‐methyl‐1H‐pyrazol‐4‐yl)isoquinolin‐3‐amine]: the “∆T m ± SD USP7asoc” value was “–0.10 ± 0.09 °C” in assay [1] (30 min incubation at 20°C) and “–0.25 ± 0.09 °C” in assay [1] (4 h incubation at 20°C). Further, in assay [2], the “temperature decrease with USP7 in DSF” value was “–4 °C”. The “∆T m ± SD USP7” value in assay [3] (30 min incubation at 20°C) was “–0.13 ± 0.08 °C”; in assay [3] (4 h incubation at 20°C), “–0.23 ± 0.06 °C”. The “protein species in deconvoluted mass spectrum of USP7asoc” value in assay [4] was “single covalent modification as the main peak”. The “protein species in deconvoluted mass spectrum of USP7” value in assay [5] is “mono‐arylated protein species as the main peak”. The IC50 in assay [6] (read-out: IC50 USP7cd) is 43.3 µM and 43 µM; in assay [6] (supplement table, read-out: Biological Activity (IC50)) it was 48.2 ± 6.89 µM.

The record behind these values is article PMC12336439 (Archiv Der Pharmazie, 2025).
